{"source": "ChEMBL document CHEMBL5614413", "about": "“Design, synthesis and biological evaluation of amphiphilic benzopyran derivatives as potent antibacterial agents against multidrug-resistant bacteria” (Eur J Med Chem, 2024)", "tested_on": "Staphylococcus aureus", "assay": "Drug resistance, ratio of MIC for methicillin-resistant Staphylococcus aureus ATCC 43300 after 19 days exposure to MIC for methicillin-resistant Staphylococcus aureus ATCC 43300 during first exposure", "format": "functional", "conditions": "time 19 day", "data": [{"smiles": "CCn1cc(C(=O)O)c(=O)c2cc(F)c(N3CCNCC3)cc21", "note": "[NORFLOXACIN]", "values": [{"measurement": "Ratio", "result": 512}]}]}
